# From ChEMBL document CHEMBL1150747, “Isolation of deoxyshikonin, an antidermatophytic principle from Lithospermum erythrorhizon cell cultures” (1988)
# Calls of active or inactive are those of the source. The calls are words filed in the database; no cut-off is given here.
# What was measured:
# [1] = tested on: Nannizzia gypsea; experiment: Antimicrobial activity against Microsporum gypseum IFO 8307 after 7 days by agar dilution streak method; format: functional; conditions: IFO 8307, 168 h
# [2] = tested on: Trichophyton rubrum; experiment: Antimicrobial activity against Trichophyton rubrum IFO 5808 after 7 days by agar dilution streak method; format: functional; conditions: IFO 5808, 168 h
# [3] = tested on: Trichophyton mentagrophytes; experiment: Antimicrobial activity against Trichophyton mentagrophytes IFO 5809 after 7 days by agar dilution streak method; format: functional; conditions: IFO 5809, 168 h
# [4] = tested on: Epidermophyton floccosum; experiment: Antimicrobial activity against Epidermophyton floccosum IFO 9045 after 7 days by agar dilution streak method; format: functional; conditions: IFO 9045, 168 h
# [5] = tested on: Trichophyton tonsurans var. sulfureum; experiment: Antimicrobial activity against Trichophyton tonsurans var. sulfureum IFO 5945 after 7 days by agar dilution streak method; format: functional; conditions: IFO 5945, 168 h
# [6] = tested on: Candida tropicalis; experiment: Antimicrobial activity against Candida tropicalis IFO 0006 at 200 ug/mL after 7 days by paper disk method; format: functional, organism-based
# [7] = tested on: Cyberlindnera jadinii; experiment: Antimicrobial activity against Candida utilis […] at 200 ug/mL after 7 days by paper disk method; format: functional, organism-based
# [8] = tested on: Staphylococcus aureus; experiment: Antimicrobial activity against Staphylococcus aureus 209P IFO 12732 after 24 hrs by agar dilution streak method; format: functional; conditions: 209P IFO 12732, 24 h
# [9] = tested on: Serratia marcescens; experiment: Antimicrobial activity against Serratia marcescens IFO 12648 at 200 ug/mL after 24 hrs by paper disk method; format: functional, organism-based
# [10] = tested on: Saccharomyces; experiment: Antimicrobial activity against Saccharomyces sake IFO 0305 after 7 days by agar dilution streak method; format: functional; conditions: IFO 0305, 168 h
# [11] = tested on: Micrococcus luteus; experiment: Antimicrobial activity against Micrococcus luteus IFO 12708 after 24 hrs by agar dilution streak method; format: functional; conditions: IFO 12708, 24 h
# [12] = tested on: Bacillus subtilis; experiment: Antimicrobial activity against Bacillus subtilis PCI 219 IFO 3513 after 24 hrs by agar dilution streak method; format: functional; conditions: PCI 219 IFO 3513, 24 h
# [13] = tested on: Kocuria rosea; experiment: Antimicrobial activity against Micrococcus roseus IFO 3764 after 24 hrs by agar dilution streak method; format: functional; conditions: IFO 3764, 24 h
# [14] = tested on: Trichophyton mentagrophytes; experiment: Fungistatic activity against Trichophyton mentagrophytes IFO 5809 at 100 ug/mL after 7 days by liquid dilution method; format: functional, organism-based
# [15] = tested on: Meyerozyma guilliermondii; experiment: Antimicrobial activity against Candida guilliermondii IFO 0454 at 200 ug/mL after 7 days by paper disk method; format: functional, organism-based
# [16] = tested on: Pichia norvegensis; experiment: Antimicrobial activity against Candida mycoderma IFO 0162 at 200 ug/mL after 7 days by paper disk method; format: functional, organism-based
# [17] = tested on: Pseudomonas aeruginosa; experiment: Antimicrobial activity against Pseudomonas aeruginosa IFO 12689 at 200 ug/mL after 24 hrs by paper disk method; format: functional, organism-based
# [18] = tested on: Escherichia coli; experiment: Antimicrobial activity against Escherichia coli NIHJ IFO 12734 at 200 ug/mL after 24 hrs by paper disk method; format: functional, organism-based
# [19] = tested on: Candida albicans; experiment: Antimicrobial activity against Candida albicans IFO 0197 at 200 ug/mL after 7 days by paper disk method; format: functional, organism-based
smiles,measurement,setting,value
COC1=CC(=O)C[C@@H](C)[C@]12Oc1c(Cl)c(OC)cc(OC)c1C2=O [GRISEOFULVIN],MIC,[1],1.5 µg/mL
same,MIC,[2],3.1 µg/mL
same,MIC,[3],3.1 µg/mL
same,MIC,[4],1.5 µg/mL
same,MIC,[5],3.1 µg/mL
CC(C)=CCCC1=CC(=O)c2c(O)ccc(O)c2C1=O [DEOXYSHIKONIN],Activity,[6],inactive
same,Activity,[7],inactive
same,MIC,[8],200 µg/mL
same,Activity,[9],inactive
same,MIC,[10],6.2 µg/mL
same,MIC,[11],50 µg/mL
same,MIC,[1],6.2 µg/mL
same,MIC,[12],200 µg/mL
same,MIC,[2],25 µg/mL
same,MIC,[13],100 µg/mL
same,MIC,[3],12.5 µg/mL
same,Activity,[14],inactive
same,MIC,[4],6.2 µg/mL
same,Activity,[15],inactive
same,MIC,[5],12.5 µg/mL
same,Activity,[16],inactive
same,Activity,[17],inactive
same,Activity,[18],inactive
same,Activity,[19],inactive
CC(C)=CC[C@@H](O)C1=CC(=O)c2c(O)ccc(O)c2C1=O [SHIKONIN],Activity,[6],inactive
same,Activity,[7],inactive
same,MIC,[8],> 200 µg/mL
same,Activity,[9],inactive
same,MIC,[10],3.1 µg/mL
same,MIC,[11],100 µg/mL
same,MIC,[1],12.5 µg/mL
same,MIC,[12],> 200 µg/mL
same,MIC,[2],25 µg/mL
same,MIC,[13],200 µg/mL
same,MIC,[3],25 µg/mL
same,MIC,[4],6.2 µg/mL
same,Activity,[15],inactive
same,MIC,[5],25 µg/mL
same,Activity,[16],inactive
same,Activity,[17],inactive
same,Activity,[18],inactive
same,Activity,[19],inactive
O=C(N[C@H](CO)[C@H](O)c1ccc([N+](=O)[O-])cc1)C(Cl)Cl [CHLORAMPHENICOL],MIC,[8],12.5 µg/mL
same,MIC,[10],> 200 µg/mL
same,MIC,[11],6.2 µg/mL
same,MIC,[12],6.2 µg/mL
same,MIC,[13],25 µg/mL
